{
  "source": "PubChem BioAssay AID328",
  "about": "(DTP/NCI, 2004)",
  "test_system": "BDF1 mice, P388 leukemia ip, median survival T/C",
  "assay": "NCI In Vivo Anticancer Drug Screen. Data for tumor model P388 Leukemia (intraperitoneal) in B6D2F1 (BDF1) mice",
  "conditions": "endpoint: median survival time, higher = longer survival",
  "procedure,_shortened": "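Vehicle-dosed animals serve as the reference; survival of compound-dosed, tumour-implanted mice is divided by it.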",
  "key": {"[1]": {"conditions": "dose: 100.0 mg/kg/injection, schedule: Q04DX003 (ip), vehicle: saline with Tween-80"}, "[2]": {"conditions": "dose: 200.0 mg/kg/injection, schedule: Q04DX003 (ip), vehicle: saline with Tween-80"}, "[3]": {"conditions": "dose: 400.0 mg/kg/injection, schedule: Q04DX003 (ip), vehicle: saline with Tween-80"}, "[4]": {"conditions": "dose: 12.5 mg/kg/injection, schedule: Q04DX003 (ip), vehicle: saline with Tween-80"}, "[5]": {"conditions": "dose: 50.0 mg/kg/injection, schedule: Q01DX005 (ip), vehicle: saline with Tween-80"}},
  "note": "Values joined by “and” are separate entries in the source; they are usually repeats but may differ in a detail not shown here. Equal entries are not always repeated. Inconclusive results and toxic doses are left out.",
  "data": [
    {"compound": "c1ccc2cc3c(cc2c1)Nc1cc2ccccc2cc1N3", "values": [
      {"measurement": "T/C", "setting": "dose: 100.0 mg/kg/injection, schedule: Q01DX009 (ip), vehicle: saline with Tween-80", "result": "96 % of control"},
      {"measurement": "T/C", "setting": "[1]", "result": "100 % of control"},
      {"measurement": "T/C", "setting": "dose: 200.0 mg/kg/injection, schedule: Q01DX009 (ip), vehicle: saline with Tween-80", "result": "103 % of control"},
      {"measurement": "T/C", "setting": "[2]", "result": "100 % of control"},
      {"measurement": "T/C", "setting": "dose: 400.0 mg/kg/injection, schedule: Q01DX009 (ip), vehicle: saline with Tween-80", "result": "100 % of control"},
      {"measurement": "T/C", "setting": "[3]", "result": "108 % of control"}
    ]},
    {"compound": "C=CC1CN2CCC1CC2C(O)c1ccnc2ccccc12", "note": "(stereo not drawn)", "values": [
      {"measurement": "T/C", "setting": "dose: 50.0 mg/kg/injection, schedule: Q04DX003 (ip), vehicle: saline with Tween-80", "result": "102 % of control"},
      {"measurement": "T/C", "setting": "[1]", "result": "88 % of control"},
      {"measurement": "T/C", "setting": "[2]", "result": "107 % of control"}
    ]},
    {"compound": "CS(=O)(=O)OCCN(CCOS(C)(=O)=O)c1ccc(C=O)cc1", "values": [
      {"measurement": "T/C", "setting": "dose: 3.0 mg/kg/injection, schedule: Q04DX003 (ip), vehicle: saline with Tween-80", "result": "227 % of control"},
      {"measurement": "T/C", "setting": "dose: 3.13 mg/kg/injection, schedule: Q01DX009 (ip), vehicle: saline with Tween-80", "result": "210 % of control"},
      {"measurement": "T/C", "setting": "dose: 5.0 mg/kg/injection, schedule: Q04DX003 (ip), vehicle: saline with Tween-80", "result": "177 % of control"},
      {"measurement": "T/C", "setting": "dose: 6.25 mg/kg/injection, schedule: Q01DX009 (ip), vehicle: saline with Tween-80", "result": "229 % of control"},
      {"measurement": "T/C", "setting": "dose: 8.0 mg/kg/injection, schedule: Q01DX009 (ip), vehicle: saline with Tween-80", "result": "237 % of control"},
      {"measurement": "T/C", "setting": "dose: 8.0 mg/kg/injection, schedule: Q04DX003 (ip), vehicle: saline with Tween-80", "result": "181 % of control"},
      {"measurement": "T/C", "setting": "dose: 8.25 mg/kg/injection, schedule: Q04DX003 (ip), vehicle: saline with Tween-80", "result": "195 % of control"},
      {"measurement": "T/C", "setting": "dose: 12.0 mg/kg/injection, schedule: Q01DX009 (ip), vehicle: saline with Tween-80", "result": "212 % of control"},
      {"measurement": "T/C", "setting": "dose: 12.5 mg/kg/injection, schedule: Q01DX009 (ip), vehicle: saline with Tween-80", "result": "231 % of control and 176 % of control"},
      {"measurement": "T/C", "setting": "[4]", "result": "212 % of control"},
      {"measurement": "T/C", "setting": "dose: 18.0 mg/kg/injection, schedule: Q01DX009 (ip), vehicle: saline with Tween-80", "result": "250 % of control"},
      {"measurement": "T/C", "setting": "dose: 18.75 mg/kg/injection, schedule: Q04DX003 (ip), vehicle: saline with Tween-80", "result": "250 % of control"},
      {"measurement": "T/C", "setting": "dose: 25.0 mg/kg/injection, schedule: Q01DX009 (ip), vehicle: saline with Tween-80", "result": "86 % of control"}
    ]},
    {"compound": "O=C1OCc2cc3ccccc3nc21", "values": [
      {"measurement": "T/C", "setting": "[1]", "result": "109 % of control"},
      {"measurement": "T/C", "setting": "[2]", "result": "100 % of control"},
      {"measurement": "T/C", "setting": "[3]", "result": "104 % of control"}
    ]},
    {"compound": "CCCCCCCC(=O)Nc1c(C)cc(C)cc1C", "values": [
      {"measurement": "T/C", "setting": "[1]", "result": "109 % of control"},
      {"measurement": "T/C", "setting": "[2]", "result": "100 % of control"},
      {"measurement": "T/C", "setting": "[3]", "result": "109 % of control"}
    ]},
    {"compound": "CCCCNCCC(SSSC(CCNCCCC)c1ccc(Cl)cc1)c1ccc(Cl)cc1", "note": "(stereo not drawn)", "values": [
      {"measurement": "T/C", "setting": "dose: 6.25 mg/kg/injection, schedule: Q04DX003 (ip), vehicle: saline with Tween-80", "result": "104 % of control"},
      {"measurement": "T/C", "setting": "[4]", "result": "100 % of control"},
      {"measurement": "T/C", "setting": "dose: 25.0 mg/kg/injection, schedule: Q04DX003 (ip), vehicle: saline with Tween-80", "result": "109 % of control"}
    ]},
    {"compound": "Nc1ccn(CC(=O)N2CCOCC2)c(=O)n1", "values": [
      {"measurement": "T/C", "setting": "dose: 25.0 mg/kg/injection, schedule: Q04DX003 (ip), vehicle: water", "result": "106 % of control"},
      {"measurement": "T/C", "setting": "dose: 50.0 mg/kg/injection, schedule: Q04DX003 (ip), vehicle: water", "result": "103 % of control"},
      {"measurement": "T/C", "setting": "dose: 100.0 mg/kg/injection, schedule: Q04DX003 (ip), vehicle: water", "result": "89 % of control"},
      {"measurement": "T/C", "setting": "dose: 200.0 mg/kg/injection, schedule: Q04DX003 (ip), vehicle: water", "result": "103 % of control"},
      {"measurement": "T/C", "setting": "dose: 400.0 mg/kg/injection, schedule: Q04DX003 (ip), vehicle: water", "result": "94 % of control"}
    ]},
    {"compound": "CC1(C)OC2(C)CCC1C(=O)C2N1CCCCC1", "note": "(stereo not drawn)", "values": [
      {"measurement": "T/C", "setting": "[5]", "result": "105 % of control"},
      {"measurement": "T/C", "setting": "dose: 100.0 mg/kg/injection, schedule: Q01DX005 (ip), vehicle: saline with Tween-80", "result": "95 % of control"},
      {"measurement": "T/C", "setting": "dose: 200.0 mg/kg/injection, schedule: Q01DX005 (ip), vehicle: saline with Tween-80", "result": "101 % of control"}
    ]},
    {"compound": "CN=c1ccc2nc3ccc(N)cc3sc-2c1", "values": [
      {"measurement": "T/C", "setting": "[5]", "result": "103 % of control"}
    ]},
    {"compound": "O=C(CCl)Nc1ccc([As](=O)(O)O)cc1", "values": [
      {"measurement": "T/C", "setting": "dose: 12.5 mg/kg/injection, schedule: Q01DX009 (ip), vehicle: Klucel (hydroxypropylcellulose) (HPC)", "result": "100 % of control"},
      {"measurement": "T/C", "setting": "dose: 25.0 mg/kg/injection, schedule: Q01DX009 (ip), vehicle: Klucel (hydroxypropylcellulose) (HPC)", "result": "100 % of control"},
      {"measurement": "T/C", "setting": "dose: 50.0 mg/kg/injection, schedule: Q01DX009 (ip), vehicle: Klucel (hydroxypropylcellulose) (HPC)", "result": "90 % of control"}
    ]}
  ]
}
